Key:
[1] = system: pooled human liver microsomes (HLM); test: THT disappearance on incubation with pooled human liver microsomes, with heat-inactivation of FMO3 or carbon monoxide inactivation of CYPs; format: in vitro ADME
Procedure: THT (Sigma-Aldrich, Stockholm, Sweden) was received as a liquid solution and stock solutions were prepared daily and diluted in 50mM potassium phosphate buffer pH 7.4.
Linearity of the reactions with time, enzyme and THT concentrations was determined before measuring apparent enzyme kinetic constants; pooled human liver microsomes (HLM) (Cypex, Dundee, UK) were incubated at different enzyme concentrations with a range of THT concentrations (10–500μM).
Time curves were performed by incubating microsomes in 50mM potassium phosphate buffer (pH 7.4) in a total volume of 200μL. The reaction was started by the addition of NADPH (Sigma-Aldrich, St. Louis, USA) to a final concentration of 1mM and terminated by adding one volume of ice cold dicholormethane (Fluka, Seeze, Germany).
The relative contribution of CYPs and FMO3 in the metabolism of THT was studied by heat-inactivation of FMO3 in some incubations and, in other incubations, CYP enzymes in HLM were inactivated by carbon monoxide (AGA Gas, Enköping, Sweden) bubbling.
(§1) Incubations were performed in triplicate and negative controls (excluding NADPH, microsomes, THT or by terminating the incubations before the addition of NADPH) were run in parallel.
To measure THT and the secondary metabolite, sulfolane, the reactions were terminated by adding dichloromethane. Samples (180μL) were added to 10μM nicotine (20μL, Merck, Hoherbrunn, Germany), used as an internal standard, before extraction. The matrix was extracted by liquid-liquid extraction with dichloromethane (equal volumes, 200μL) after 30 sec of high speed vortexing. After extraction and centrifugation at 16000 g for 10 min, the organic phase was transferred into GC-MS tubes. […] Samples (180μL) were added to 10 μM of 3-methylsulfolane (20μL, TCI, Tokyo, Japan), used as an internal standard. […]
(§2) Concentrations of THT and its metabolites were measured using GC-MS [18] after validation for use with microsomal incubations according to the international guidelines.

CYP2B6 = target: T1, CYP2B6 (Homo sapiens, UniProt P20813); test: THT disappearance with recombinant cDNA-expressed enzyme microsomes; format: in vitro ADME; conditions: 25μM THT, 35pmol CYP/mL
T1 construct: purchased BD Biosciences; host or cells: baculovirus infected insect cells
T1 sequence (P20813 1-491): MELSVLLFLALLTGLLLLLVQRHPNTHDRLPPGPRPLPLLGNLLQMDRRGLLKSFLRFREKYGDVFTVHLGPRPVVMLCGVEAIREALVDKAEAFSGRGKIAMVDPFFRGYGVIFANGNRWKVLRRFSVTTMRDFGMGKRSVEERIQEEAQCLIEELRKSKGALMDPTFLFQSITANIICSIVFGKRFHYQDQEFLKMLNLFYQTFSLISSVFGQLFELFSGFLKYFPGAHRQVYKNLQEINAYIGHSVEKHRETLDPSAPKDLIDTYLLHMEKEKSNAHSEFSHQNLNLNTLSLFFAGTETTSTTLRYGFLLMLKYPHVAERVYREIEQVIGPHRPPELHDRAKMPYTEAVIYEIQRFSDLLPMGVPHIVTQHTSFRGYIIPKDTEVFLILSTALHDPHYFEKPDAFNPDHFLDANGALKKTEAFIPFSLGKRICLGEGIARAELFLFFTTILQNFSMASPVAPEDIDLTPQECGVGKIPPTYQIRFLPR
Procedure: (§3) To identify the enzymes involved in Bu metabolism, 11 microsomal batches (BD Biosciences, Stockholm, Sweden), each containing a separate cDNA-expressed enzyme, were incubated with 25μM THT. The microsomes contained FMO3, CYP1A1, CYP1A2, CYP2B6, CYP2C8, CYP2C9, CYP2C19, CYP2D6, CYP2E1, CYP3A4 or CYP4A11. Time curves (0, 5, 15, 30 and 60min) were performed at a concentration of 0.35mg protein /mL for FMO3 and 35pmol CYP/mL for the CYP enzymes. The recombinant enzymes were produced from human cDNA expressing each of them using baculovirus expression system. Baculovirus infected insect cells were used to prepare these microsomes.
as §1
(§4) To measure THT and the secondary metabolite, sulfolane, the reactions were terminated by adding dichloromethane. Samples (180μL) were added to 10μM nicotine (20μL, Merck, Hoherbrunn, Germany), used as an internal standard, before extraction. The matrix was extracted by liquid-liquid extraction with dichloromethane (equal volumes, 200μL) after 30 sec of high speed vortexing. After extraction and centrifugation at 16000 g for 10 min, the organic phase was transferred into GC-MS tubes. […] Samples (180μL) were added to 10 μM of 3-methylsulfolane (20μL, TCI, Tokyo, Japan), used as an internal standard. The matrix was lyophilized (< 1 mbar at 40°C under N2 stream) to dryness, the residue was dissolved in 10 μL water and 200 μL of ethyl acetate was added for extraction. Samples were vortexed for 30 sec at high speed and centrifuged at 16000 g for 10 min. The organic phase was transferred to GC-MS tubes.
as §2

CYP2C19 = target: T2, CYP2C19 (Homo sapiens, UniProt P33261); test: as above; format: in vitro ADME; conditions: 25μM THT, 35pmol CYP/mL
T2 construct: purchased BD Biosciences; host or cells: baculovirus infected insect cells
Procedure: as §3, §1, §4, §2

CYP2C9 = target: T3, CYP2C9 (Homo sapiens, UniProt P11712); test: as above; format: in vitro ADME; conditions: 25μM THT, 35pmol CYP/mL
T3 construct: purchased BD Biosciences; host or cells: baculovirus infected insect cells
Procedure: as §3, §1, §4, §2

CYP2E1 = target: T4, CYP2E1 (Homo sapiens, UniProt P05181); test: as above; format: in vitro ADME; conditions: 25μM THT, 35pmol CYP/mL
T4 construct: purchased BD Biosciences; host or cells: baculovirus infected insect cells
Procedure: as §3, §1, §4, §2

[2] = Busulphan and THT plasma kinetics in a patient treated concomitantly with voriconazole; format: in vivo, human; conditions: Bu 2mg/kg b.i.d. with concomitant voriconazole
Procedure: In order to confirm the contribution of FMO3 to human Bu kinetics, blood samples were collected (routinely) from a patient who underwent stem cell transplantation and was conditioned according to the hospital transplantation protocol i.e. high dose of Bu (2mg/kg b.i.d.) for four days followed with two days of cyclophosphamide (60mg/kg). […] Voriconazole was administered, according to the hospital clinical protocol, for the treatment of an acute fungal infection.
Samples were taken for therapeutic drug monitoring (TDM) at several time points after the first, third and fifth doses. Blood was collected into EDTA vacutainer tubes, plasma was separated by centrifugation at 1200 g and stored at -20°C until analysis of Bu and THT [18].

[3] = Busulphan kinetics in mice (alone, after PTU pretreatment, or with high-dose THT); conditions: mice injected with Bu and PTU
Procedure: Male C57BL/6N mice (6–8 weeks old) were purchased from Charles River (Cologne, Germany). The mice were allowed to acclimatize to the surroundings for 2 weeks with a 12h dark/12h light cycle and randomized for treatment. Standard laboratory chow and water ad libitum was introduced.
To study Bu and THT kinetics, Bu (Sigma-Aldrich, Steinheim, Germany) was administered i.p. (25mg/kg or 100μmol/kg) as a 2mM solution in DMSO (Sigma-Aldrich, Stockholm, Sweden) [21]. THT was also prepared as a 2mM solution in DMSO and the dose given was equimolar to the Bu treatment (i.e. 100μmol/kg or 8.8 mg/kg). Upon injection, samples were diluted with physiological NaCl solution to a final DMSO concentration of 10% in the dosing solution. At the appropriate time points (10min, 30min, 1h, 2h, 4h, 6h and 8h), mice (three mice at each time point) were anesthetized using 2% isoflurane and the blood samples were collected by heart puncture. Mice were euthanized by cervical dislocation. Plasma was separated and stored at -20°C.
PTU (3mg/kg) was dissolved in DMSO and diluted with physiological NaCl solution and then injected into the mice once daily followed by Bu or THT injections on the 4th day. The mice were euthanized and plasma samples prepared as in the previous experiment.
To detect the effect of high THT concentrations on Bu metabolism, a third group of mice was injected with both Bu (100μmol/kg) and a high dose of THT (17.6mg/kg or 200μmol/kg) and samples prepared as described previously. All experiments including negative controls (mice injected with 10% DMSO in NaCl solution) and mice injected with PTU alone were performed in triplicates.
To quantify Bu, samples were extracted according to the method reported previously by Hassan et al. [24]. Briefly, 500 μL of plasma were diluted with 500 μL of water. Fifty microliters of the internal standard (1,5-bis(methanesulfonoxy)pentane; 38.5 μM) were added, followed by the addition of 1 mL of sodium iodide (8M, Merck, Darmstadt, Germany) and 400μL of n-heptane (Merck, Darmstadt, Germany). The tubes were placed under magnetic stirring in a water bath (70°C) for 45 min. During the reaction, busulphan and 1,5-bis(methanesulfonoxy)pentane were converted to 1,4-diiodobutane and 1,5-diiodopentane respectively and subsequently extracted with n-heptane [25]. The conversion of busulphan and 1,5-bis(methanesulfonoxy)pentane to 1,4-diiodobutane and 1,5-diiodopentane was over 90% [24]. The organic phase was analyzed by GC-MS [18]. THT was quantified as described previously and the method was validated for use with mouse plasma before measuring both Bu and THT [19, 20].
Kinetic parameters from in vivo studies were estimated using WinNonLin software (standard edition, version 2.0), while Microsoft Excel and SigmaPlot software (version 12.5, Systat software, Inc.) were utilized for in vitro kinetics.

T3 sequence (P11712 whole entry): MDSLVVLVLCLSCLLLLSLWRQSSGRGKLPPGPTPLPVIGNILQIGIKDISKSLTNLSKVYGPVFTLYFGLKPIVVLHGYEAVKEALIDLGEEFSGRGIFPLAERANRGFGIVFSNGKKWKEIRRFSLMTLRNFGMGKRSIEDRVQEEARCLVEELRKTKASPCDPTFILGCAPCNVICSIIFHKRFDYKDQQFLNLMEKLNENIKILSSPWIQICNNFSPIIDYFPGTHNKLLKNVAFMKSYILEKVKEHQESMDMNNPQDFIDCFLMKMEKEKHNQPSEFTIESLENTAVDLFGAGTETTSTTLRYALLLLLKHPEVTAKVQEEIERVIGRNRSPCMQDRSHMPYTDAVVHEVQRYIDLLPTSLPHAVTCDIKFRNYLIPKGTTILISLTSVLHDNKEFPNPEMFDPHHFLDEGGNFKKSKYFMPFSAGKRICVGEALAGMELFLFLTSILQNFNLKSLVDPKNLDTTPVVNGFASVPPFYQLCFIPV
T4 sequence (P05181 whole entry): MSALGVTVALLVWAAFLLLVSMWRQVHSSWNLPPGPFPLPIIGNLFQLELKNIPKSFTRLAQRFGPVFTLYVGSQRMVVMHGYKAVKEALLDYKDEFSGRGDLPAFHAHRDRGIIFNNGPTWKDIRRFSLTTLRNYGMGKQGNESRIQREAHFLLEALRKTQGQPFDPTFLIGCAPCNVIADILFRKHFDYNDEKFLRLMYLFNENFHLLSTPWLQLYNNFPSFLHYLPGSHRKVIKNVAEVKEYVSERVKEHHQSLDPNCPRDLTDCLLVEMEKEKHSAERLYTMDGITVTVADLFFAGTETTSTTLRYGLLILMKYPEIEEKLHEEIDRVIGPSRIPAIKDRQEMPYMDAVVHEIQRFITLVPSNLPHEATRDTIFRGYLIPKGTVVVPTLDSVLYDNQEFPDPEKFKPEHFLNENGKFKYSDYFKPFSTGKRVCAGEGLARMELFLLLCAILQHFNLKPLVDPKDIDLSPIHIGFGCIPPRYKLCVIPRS
T2 sequence (P33261 whole entry): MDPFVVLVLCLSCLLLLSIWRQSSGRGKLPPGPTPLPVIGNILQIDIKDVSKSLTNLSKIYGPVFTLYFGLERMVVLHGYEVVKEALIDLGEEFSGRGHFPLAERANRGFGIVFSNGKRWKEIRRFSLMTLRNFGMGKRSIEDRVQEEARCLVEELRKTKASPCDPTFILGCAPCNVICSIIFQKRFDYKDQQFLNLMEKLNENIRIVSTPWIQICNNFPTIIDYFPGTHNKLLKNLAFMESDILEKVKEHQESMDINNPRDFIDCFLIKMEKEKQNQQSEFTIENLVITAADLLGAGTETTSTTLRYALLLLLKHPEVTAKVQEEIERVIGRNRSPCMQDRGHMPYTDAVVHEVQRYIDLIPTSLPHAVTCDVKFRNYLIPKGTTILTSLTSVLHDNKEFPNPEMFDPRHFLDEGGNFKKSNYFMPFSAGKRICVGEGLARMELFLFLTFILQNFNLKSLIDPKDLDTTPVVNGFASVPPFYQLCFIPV

## C1CCSC1 [THT, tetrahydrothiophene]
[1]
  THT disappearance on incubation with HLM: rapid THT disappearance
  reduction of THT disappearance by CYP inhibition by carbon monoxide: 9%
[1]; within 60 min
  reduction of THT disappearance by inactivation of FMO3 (heat treatment): 44%
CYP2B6
  v0: 1.76 nmol/min/mL
  v0/CYP: 0.05 nmol/min/pmol CYP
CYP2C19
  v0: 1.51 nmol/min/mL
  v0/CYP: 0.04 nmol/min/pmol CYP
CYP2C9
  v0: 1.64 nmol/min/mL
  v0/CYP: 0.05 nmol/min/pmol CYP
CYP2E1
  v0: 1.41 nmol/min/mL
  v0/CYP: 0.04 nmol/min/pmol CYP
[2]
  THT concentrations versus Bu alone: higher concentrations than with Bu alone
  time at which THT was detected after the first dose of Bu: 1 h
[3]
  THT concentrations versus Bu alone: significantly (P<0.05, t-test) increased
